Patent publication US20260345802A1, “ANTIBODY-DRUG CONJUGATES AND LINKERS AND METHODS OF USE THEREOF” (priority 2023, published 2026)
Where a SMILES comes first, the peptide text is derived from it. [ ]: non-standard residue; d: D form. Dolaproine = CO[C@@H]([C@@H]1CCCN1)[C@@H](C)C(=O)O; Dil = CC[C@H](C)[C@H](NC)[C@@H](CC(=O)O)OC; NMeV = CN[C@H](C(=O)O)C(C)C

Tested on: TNBC tumor tissue
Assay: Single-cell RNA sequencing of tumors
Assay type: in vivo, mouse
Details: scRNA-Seq, payload effect
Description: The flash-frozen tissue samples (25 mg) were collected and stored at −80° C. until processing. Chromium Next GEM RNA Profiling Sample Fixation Kit (PN-1000414, 10× Genomics, Pleasanton, CA, USA) was used to fix tissue by mixing 1 mL of fixation buffer with 25 mg of tissue, followed by fine mince and incubation at 4° C. for 16-24 hours without agitation. After fixation, tissue samples were centrifuged, washed with chilled PBS, and resuspended in 1 mL of tissue resuspension buffer. The fixed tissues supplemented with pre-warmed dissociation buffer were dissociated using an Octo Dissociator according to the manufacturer's instructions. […] Cell concentration was determined using an automated cell counter with fluorescent nucleic acid staining. […]
A 10× single-cell library was prepared using the Chromium Fixed RNA Kit (Cat #1000497, 10× Genomics). […] The quality control of cDNA was evaluated using an Agilent Bioanalyzer aiming for the final library molecules with P5 and P7 priming sites used in Illumina sequencers. For each cDNA sample, single-cell library construction was started using the 10× barcoded ligated probe products, and sequenced using the NovaSeq 6000 flow cell 100-cycle kit (Illumina, San Diego, CA, USA) in a Read1:i7:i5:Read2 format of 28:10:10:90 bp at 10× Genomics. […]

CC[C@H](C)[C@@H]([C@@H](CC(=O)N1CCC[C@H]1[C@H](OC)[C@@H](C)C(=O)N[C@@H](Cc1ccccc1)C(=O)O)OC)N(C)C(=O)[C@@H](NC(=O)[C@@H](NC)C(C)C)C(C)C [MMAF, Monomethylauristatin F] (H-[NMeV]V[Dil][Dolaproine]F-OH)
tumor cell distribution in mitotic stages: inhibition of cell proliferation
